In article PMC4206749 (Toxicological Research, 2014):
Marks after values point to notes of the source that are not given here. Each block holds one compound with its values, some of them ahead of it.

Legend:
[1] = system: Salmonella typhimurium strain TA98; assay: Bacterial reverse mutation assay; format: cell-based
[2] = system: Escherichia coli strain (WP2 uvrA); assay: Bacterial reverse mutation assay; format: cell-based; conditions: E. coli
[3] = system: Salmonella typhimurium strain TA1535; assay: Bacterial reverse mutation assay; format: cell-based
[4] = system: Salmonella typhimurium strain TA1537; assay: Bacterial reverse mutation assay; format: cell-based
[5] = system: Salmonella typhimurium strain TA100; assay: Bacterial reverse mutation assay; format: cell-based
[6] = system: L5178Y Tk^+/− mouse lymphoma cells; assay: In vitro comet assay; format: cell-based; conditions: for % DNA in tail / Olive moment / Tail length / Tail moment: 4 hr; for Comet parameters compared to vehicle: p < 0.05
[7] = system: CHL cells (Chinese hamster lung fibroblast cell line); assay: In vitro chromosomal aberration assay; format: cell-based
[8] = system: S. typhimurium strain TA100 and TA98, E. coli strain WP2uvrA; conditions: presence and absence of the S9 mix, 0.02~5000 μg per plate; cited from earlier work
[9] = positive control 35 μg/ml with S9 mix
[10] = positive control 10 μg/ml, with metabolic activation, short term treatment
[11] = positive control 15 μg/ml without S9 mix

Structure (SMILES): Nc1ccc2cc3ccccc3cc2c1 [2-AA, 2-aminoanthracene, reference compound]
Number of reverse mutants/plate (Mean ± SD) ([1]; TA98, with S9 activation, positive control 0.5 μg/plate): 232 ± 9 reverse mutants/plate
Number of reverse mutants/plate (Mean ± SD) ([2]; with S9 activation, positive control 10 μg/plate): 428 ± 21 reverse mutants/plate
Number of reverse mutants/plate (Mean ± SD) ([3]; TA1535, with S9 activation, positive control 2.0 μg/plate): 156 ± 6 reverse mutants/plate
Number of reverse mutants/plate (Mean ± SD) ([4]; TA1537, with S9 activation, positive control 2.0 μg/plate): 118 ± 16 reverse mutants/plate
Number of reverse mutants/plate (Mean ± SD) ([5]; TA100, with S9 activation, positive control 1.0 μg/plate): 598 ± 20 reverse mutants/plate

Structure (SMILES): Nc1c2ccccc2nc2ccccc12 [9-AA, 9-aminoacridine, reference compound]
Number of reverse mutants/plate (Mean ± SD) ([4]; TA1537, without S9 activation, positive control 80 μg/plate): 151 ± 11 reverse mutants/plate

Structure (SMILES): NC(=O)C(=Cc1ccc([N+](=O)[O-])o1)c1ccco1 [AF-2, 2-(2-furyl)-3-(5-nitro-2-furyl) acrylamide, reference compound]
Number of reverse mutants/plate (Mean ± SD) ([1]; TA98, without S9 activation, positive control 0.1 μg/plate): 278 ± 20 reverse mutants/plate
Number of reverse mutants/plate (Mean ± SD) ([2]; without S9 activation, positive control 0.01 μg/plate): 334 ± 23 reverse mutants/plate
Number of reverse mutants/plate (Mean ± SD) ([5]; TA100, without S9 activation, positive control 0.01 μg/plate): 425 ± 23 reverse mutants/plate

Structure (SMILES): c1ccc2c(c1)cc1ccc3cccc4ccc2c1c34 [BaP, benzo(A)pryene, reference compound]
% DNA in tail [6, 9]: 49.14 ± 3.29 %
Olive moment [6, 9]: 13.74 ± 1.97 μm
Tail length [6, 9]: 80.29 ± 6.24 μm
Tail moment [6, 9]: 42.15 ± 3.98 μm
Comet parameters compared to vehicle ([6]; positive control with S9 mix): increased significantly

Structure (SMILES): O=P1(N(CCCl)CCCl)NCCCO1 (stereo not shown) [CPA, cyclophosphamide, reference compound]
Total frequency (+) Gap [7, 10]: 132** %
Total frequency (−) Gap [7, 10]: 116** %
Frequency of cells with chromosomal aberration ([7]; positive control, treatment with metabolic activation): > 10%

Gap ([7]; positive control 0.5 μg/ml, continuous treatment, 200 cells): 8
Structure (SMILES): CO[C@@]12[C@H](COC(N)=O)C3=C(C(=O)C(C)=C(N)C3=O)N1C[C@@H]1N[C@@H]12 [MMC, mitomycin C, reference compound]

Structure (SMILES): COS(C)(=O)=O [MMS, methyl methansulfonate, reference compound]
% DNA in tail [6, 11]: 51.29 ± 4.26 %
Olive moment [6, 11]: 14.68 ± 1.01 μm
Tail length [6, 11]: 97.21 ± 6.75 μm
Tail moment [6, 11]: 58.13 ± 6.12 μm
Comet parameters compared to vehicle ([6]; positive control without S9 mix): increased significantly

Structure (SMILES): [N-]=[N+]=[N-].[Na+] [NaN3, sodium azide, reference compound]
Number of reverse mutants/plate (Mean ± SD) ([3]; TA1535, without S9 activation, positive control 0.5 μg/plate): 151 ± 17 reverse mutants/plate

Structure (SMILES): Oc1ccc(/C=C/c2cc(O)cc(O)c2)cc1 [Resveratrol]
Bacterial reverse mutation assay result [8]: negative
